# Results as given in ChEMBL document CHEMBL5120871, “Identification of benzamides derivatives of norfloxacin as promising microRNA-21 inhibitors via repressing its transcription” (Bioorg Med Chem, 2022).
# pEC50, pIC50: −log10 of the molar value. Activity calls are given as the source filed them. No cut-off for these calls is given here.
# Key:
# microRNA 21 [1] = experiment: Inhibition of wild type full length miR-21 in human HeLa cells co-expressing firefly luciferase and renilla luciferase gene assessed as fold change in Luc/Rlu by measuring relative […] intensity at 20 uM by Dual-Luciferase reporter based luminometer analysis; assay type: cell-based
# HeLa [2] = experiment: Antiproliferative activity against human HeLa cells incubated for 24 hrs by CCK-8 assay; assay type: functional, cell-based
# microRNA 21 [3] = experiment: Inhibition of miR-21 maturation in human MCF7 cells assessed as reduction in pre-miR-21 expression at 30 uM measured upto 24 hrs by RT-PCR analysis relative to control; assay type: cell-based
# microRNA 21 [4] = experiment: Inhibition of miR-21 maturation in human SGC-7901 cells assessed as reduction in pre-miR-21 expression at 30 uM measured upto 24 hrs by RT-PCR analysis relative to control; assay type: cell-based
# microRNA 21 [5] = experiment: Inhibition of miR-21 maturation in human U87 cells assessed as reduction in pre-miR-21 expression at 30 uM measured upto 24 hrs by RT-PCR analysis relative to control; assay type: cell-based
# microRNA 21 [6] = experiment: Inhibition of miR-21 maturation in human LN-229 cells assessed as reduction in pre-miR-21 expression at 30 uM measured upto 24 hrs by RT-PCR analysis relative to control; assay type: cell-based
# HCT-116 [7] = experiment: Antiproliferative activity against human HCT-116 cells incubated for 24 hrs by CCK-8 assay; assay type: functional, cell-based; conditions: HCT-116, 24 h
# microRNA 21 [8] = experiment: Inhibition of miR-21 in human HeLa cells assessed as increase in luciferase activity measured after 48 hrs by bright Glo-luciferase reporter gene assay; assay type: cell-based
# microRNA 21 [9] = experiment: Inhibition of miR-21 (unknown origin) maturation assessed as cleavage of pre-miR-21 at 5 uM by RT-qPCR analysis relative to control; assay type: nucleic-acid assay; conditions: Homo sapiens
# HeLa [10] = experiment: Induction of apoptosis in human HeLa cells assessed as late apoptotic cells at 10 uM incubated for 24 hrs by annexin V-FITC and propidium iodide staining based flow cytometry (reference value: 2.03%); assay type: functional
# HeLa [11] = experiment: Induction of apoptosis in human HeLa cells assessed as viable cells at 20 uM incubated for 24 hrs by annexin V-FITC and propidium iodide staining based flow cytometry (reference value: 93.54%); assay type: functional; conditions: read-out: Activity
# microRNA 21 [12] = experiment: Inhibition of miR-21 in human HeLa cells assessed as reduction in mature miR-21 level at 10 to 20 uM measured after 24 hrs by RT-qPCR analysis; assay type: cell-based; conditions: dose 10-20 µM
# HeLa [13] = experiment: Induction of apoptosis in human HeLa cells assessed as necrotic cells at 20 uM incubated for 24 hrs by annexin V-FITC and propidium iodide staining based flow cytometry (reference value: 0.08%); assay type: functional
# HeLa [14] = experiment: Induction of apoptosis in human HeLa cells assessed as viable cells at 10 uM incubated for 24 hrs by annexin V-FITC and propidium iodide staining based flow cytometry (reference value: 93.54%); assay type: functional; conditions: read-out: Activity
# HeLa [15] = experiment: Inhibition of cell migration in human HeLa cells at 10 to 20 uM and measured after 24 hrs by crystal violet staining based transwell migration assay; assay type: functional; conditions: dose 10-20 µM
# microRNA 21 [16] = experiment: Inhibition of miR-21 in human HeLa cells assessed as downregulation of ZNF251 level at 10 uM incubated for 48 hrs by RT-qPCR analysis; assay type: cell-based
# HCT-116 [17] = experiment: Inhibition of colony formation in human HCT-116 cells incubated for 14 days by crystal violet staining based assay; assay type: functional, cell-based; conditions: dose 0.1-10 µM, time 14.0 day, DDE = dose-dependent effect
# microRNA 21 [18] = experiment: Inhibition of miR-21 in human HeLa cells assessed as downregulation of pri-miR-21 level at 10 uM and measured for 24 to 48 hrs by RT-qPCR analysis; assay type: cell-based; conditions: time 24-48 hrs
# HeLa [19] = experiment: Induction of apoptosis in human HeLa cells assessed as necrotic cells at 10 uM incubated for 24 hrs by annexin V-FITC and propidium iodide staining based flow cytometry (reference value: 0.08%); assay type: functional
# HeLa [20] = experiment: Inhibition of colony formation in human HeLa cells incubated for 14 days by crystal violet staining based assay; assay type: functional, cell-based; conditions: dose 0.1-10 µM, time 14.0 day, DDE = dose-dependent effect
# [21] = Cytotoxicity against human BEAS-2B cells assessed as reduction in cell proliferation incubated for 24 hrs by CCK-8 assay; assay type: toxicity, cell-based
# microRNA 21 [22] = experiment: Inhibition of wild type full length miR-21 in human HeLa cells co-expressing firefly luciferase and renilla luciferase gene assessed as fold change in Luc/Rlu by measuring relative […] intensity at 10 uM by Dual-Luciferase reporter based luminometer analysis; assay type: cell-based
# microRNA 21 [23] = experiment: Inhibition of miR-21 in human HeLa cells assessed as increase in PTEN level at 10 to 20 uM incubated for 48 hrs by RT-qPCR analysis; assay type: cell-based; conditions: dose 10-20 µM
# HeLa [24] = experiment: Induction of apoptosis in human HeLa cells assessed as early apoptotic cells at 10 uM incubated for 24 hrs by annexin V-FITC and propidium iodide staining based flow cytometry (reference value: 4.35%); assay type: functional
# HeLa [25] = experiment: Induction of apoptosis in human HeLa cells assessed as early apoptotic cells at 20 uM incubated for 24 hrs by annexin V-FITC and propidium iodide staining based flow cytometry (reference value: 4.35%); assay type: functional
# microRNA 21 [26] = experiment: Inhibition of miR-21 in human HeLa cells assessed as downregulation of pre-miR-21 level at 10 uM and measured for 24 to 48 hrs by RT-qPCR analysis; assay type: cell-based; conditions: time 24-48 hrs
# microRNA 21 [27] = experiment: Inhibition of miR-21 in human HeLa cells assessed as reduction in mature miR-21 level at 10 to 20 uM measured after 48 hrs by RT-qPCR analysis relative to control; assay type: cell-based; conditions: dose 10-20 µM
# HeLa [28] = experiment: Induction of apoptosis in human HeLa cells assessed as late apoptotic cells at 20 uM incubated for 24 hrs by annexin V-FITC and propidium iodide staining based flow cytometry (reference value: 2.03%); assay type: functional
# microRNA 21 [29] = experiment: Inhibition of miR-21 in human HeLa cells assessed as downregulation of ATF4 level at 10 uM incubated for 48 hrs by RT-qPCR analysis; assay type: cell-based
# microRNA 21 [30] = experiment: Inhibition of miR-21 in human HeLa cells assessed as upregulation of EGR1 level at 10 uM incubated for 48 hrs by RT-qPCR analysis; assay type: cell-based
# microRNA 21 [31] = experiment: Inhibition of miR-21 in human HeLa cells assessed as upregulation of SLIT2 level at 10 uM incubated for 48 hrs by RT-qPCR analysis; assay type: cell-based
# microRNA 21 [32] = experiment: Inhibition of miR-21 maturation in human MCF7 cells assessed as reduction in pre-miR-21 expression at 5 uM incubated for 48 hrs by RT-PCR analysis relative to control; assay type: cell-based
structure (smiles),measurement,setting,value
CCCCNC(=O)c1ccc(NC(=O)c2cn(CC)c3cc(N4CCNCC4)c(F)cc3c2=O)cc1,fold change (FC),microRNA 21 [1],0.98
CCn1cc(C(=O)Nc2ccc(C(=O)NCC(C)C)cc2)c(=O)c2cc(F)c(N3CCNCC3)cc21,fold change (FC),microRNA 21 [1],1.92
same,pIC50,HeLa [2],4.88
C#CCNC(=O)c1ccc(NC(=O)c2ccccc2Br)cc1,fold change (FC),microRNA 21 [1],1.64
CCn1cc(C(=O)Nc2ccc(C(=O)NC3CCOCC3)cc2)c(=O)c2cc(F)c(N3CCNCC3)cc21,fold change (FC),microRNA 21 [1],0.69
N#CC1CNC(N)NC1N (centres undefined),inhibition,microRNA 21 [3],50%
same,inhibition,microRNA 21 [4],50%
same,inhibition,microRNA 21 [5],50%
same,inhibition,microRNA 21 [6],50%
C#CCNC(=O)c1ccc(NC(=O)c2cn(CC)c3cc(N4CCN(CC5CC5)CC4)c(F)cc3c2=O)cc1,fold change (FC),microRNA 21 [1],1.07
CCn1cc(C(=O)Nc2ccc(F)cc2)c(=O)c2cc(F)c(N3CCN(Cc4ccccc4)CC3)cc21,fold change (FC),microRNA 21 [1],1.63
same,pIC50,HCT-116 [7],< 4.00
same,pIC50,HeLa [2],< 4.00
CCn1cc(C(=O)NC2CCN(Cc3ccccc3)CC2)c(=O)c2cc(F)c(N3CCNCC3)cc21,fold change (FC),microRNA 21 [1],1.09
CCn1cc(C(=O)NCCN2CCOCC2)c(=O)c2cc(F)c(N3CCNCC3)cc21,fold change (FC),microRNA 21 [1],0.57
CCn1cc(C(=O)Nc2ccccc2)c(=O)c2cc(F)c(N3CCN(Cc4ccccc4)CC3)cc21,fold change (FC),microRNA 21 [1],1.24
C#CCNC(=O)c1ccc(/N=N/c2ccccc2)cc1,fold change (FC),microRNA 21 [1],1.41
same,pEC50,microRNA 21 [8],5.70
NC[C@H]1O[C@H](O[C@H]2[C@H](O[C@@H]3O[C@H](CSCCNC(=O)CCCCCn4cc(COCCOc5ccc6c(c5)C(=O)N(O)C(=O)C6)nn4)[C@@H](O[C@H]4O[C@H](CN)[C@@H](O)[C@H](O)[C@H]4N)[C@H]3O)[C@@H](O)[C@H](N)C[C@@H]2N)[C@H](N)[C@@H](O)[C@@H]1O,inhibition,microRNA 21 [9],90%
CCn1cc(C(=O)O)c(=O)c2cc(F)c(N3CCNCC3)cc21,fold change (FC),microRNA 21 [1],1.08
C#CCNC(=O)c1ccc(NC(=O)c2cn(CC)c3cc(N4CCN(Cc5ccccc5)CC4)c(F)cc3c2=O)cc1,fold change (FC),microRNA 21 [1],1.47
C#CCNC(=O)c1cn(CC)c2cc(N3CCN(Cc4ccccc4)CC3)c(F)cc2c1=O,fold change (FC),microRNA 21 [1],1
CCn1cc(C(=O)NCCN2CCCCC2)c(=O)c2cc(F)c(N3CCNCC3)cc21,fold change (FC),microRNA 21 [1],0.91
CCn1cc(C(=O)Nc2ccc(C(=O)NCCN3CCCCC3)cc2)c(=O)c2cc(F)c(N3CCNCC3)cc21,Activity,HeLa [10],2.23%
same,fold change (FC),microRNA 21 [1],2.01
same,pIC50,HCT-116 [7],5.55
same,viability at 20 µM,HeLa [11],84.6%
same,inhibition,microRNA 21 [12],Active
same,Activity,HeLa [13],0.58%
same,pIC50,HeLa [2],5.26
same,viability at 10 µM,HeLa [14],91.8%
same,Activity,HeLa [15],Active
same,inhibition,microRNA 21 [16],Active
same,inhibition,HCT-116 [17],Dde
same,inhibition,microRNA 21 [18],Active
same,Activity,HeLa [19],0.24%
same,inhibition,HeLa [20],Dde
same,IC50 at 24 h,[21],> 100 µM
same,fold change (FC),microRNA 21 [22],1.42
same,inhibition,microRNA 21 [23],Active
same,Activity,HeLa [24],5.74%
same,Activity,HeLa [25],10.67%
same,inhibition,microRNA 21 [26],Active
same,inhibition,microRNA 21 [27],Active
same,Activity,HeLa [28],4.18%
same,inhibition,microRNA 21 [29],Active
same,inhibition,microRNA 21 [30],Active
same,inhibition,microRNA 21 [31],Active
CC[C@@]1(O)C(=O)OCc2c1cc1n(c2=O)Cc2cc3cc(O)ccc3nc2-1 [HYDROXYCAMPTOTHECIN],pIC50,HCT-116 [7],7.30
same,pIC50,HeLa [2],7.22
CCn1cc(C(=O)N2CCCCC2)c(=O)c2cc(F)c(N3CCN(Cc4ccccc4)CC3)cc21,fold change (FC),microRNA 21 [1],1.12
CCn1cc(C(=O)Nc2ccc(C(=O)NCC3CC3)cc2)c(=O)c2cc(F)c(N3CCNCC3)cc21,fold change (FC),microRNA 21 [1],0.72
C#CCNC(=O)c1ccc(NC(=O)c2cn(CC)c3cc(N4CCNCC4)c(F)cc3c2=O)cc1,fold change (FC),microRNA 21 [1],1.15
CCn1cc(C(=O)Nc2ccc(C(=O)NC(C)C)cc2)c(=O)c2cc(F)c(N3CCNCC3)cc21,fold change (FC),microRNA 21 [1],1.8
same,pIC50,HeLa [2],< 4.00
C#CCNC(=O)c1ccc(NC(=O)c2cn(CC)c3cc(N4CCN(C(=O)CC56CC7CC(CC(C7)C5)C6)CC4)c(F)cc3c2=O)cc1,fold change (FC),microRNA 21 [1],0.98
CCN(CC)CCNC(=O)c1ccc(NC(=O)c2cn(CC)c3cc(N4CCNCC4)c(F)cc3c2=O)cc1,fold change (FC),microRNA 21 [1],1.36
CN[C@@H]1[C@H](O[C@H]2[C@H](O[C@H]3[C@H](O)[C@@H](O)[C@H](N=C(N)N)[C@@H](O)[C@@H]3N=C(N)N)O[C@@H](C)[C@]2(O)C=O)O[C@@H](CO)[C@H](O)[C@H]1O,fold change (FC),microRNA 21 [1],1.1
same,inhibition,microRNA 21 [32],80%
